# Results: US10538555B2, “Macrocyclic inhibitors of the PD-1/PD-L1 and CD80(B7-1)/PD-L1 protein/protein interactions” (BRISTOL-MYERS SQUIBB COMPANY, priority 2014, dated 2020)
# *1 amine or outer side, *2 acyl side, *3 side chain or, on linkers, in order; H or OH if unused. Where a SMILES comes first, the peptide text is derived from it. Bridges are numbered along the chain shown (N, C = ends). [ ]: non-standard residue; d: D form. ξ: configuration not given here. Trp(1-CH2COOH) = N[C@@H](Cc1cn(CC(=O)O)c2ccccc12)C(=O)O; Phe(3,4,5-F3) = N[C@@H](Cc1cc(F)c(F)c(F)c1)C(=O)O; NMePhe(4-Me) = CN[C@@H](Cc1ccc(C)cc1)C(=O)O; NMePhe(4-F) = CN[C@@H](Cc1ccc(F)cc1)C(=O)O; Phe(4-F) = N[C@@H](Cc1ccc(F)cc1)C(=O)O; d(cisHyp) = O=C(O)[C@H]1C[C@@H](O)CN1; Hyp = O=C(O)[C@@H]1C[C@@H](O)CN1; NMeF = CN[C@@H](Cc1ccccc1)C(=O)O; X1 = O=C([C@H]1COCCN1[*:1])[*:2]; NMeE = CN[C@@H](CCC(=O)O)C(=O)O; dHyp = O=C(O)[C@H]1C[C@H](O)CN1; NMeNle = CCCC[C@H](NC)C(=O)O; dPip = O=C(O)[C@H]1CCCCN1; hSer = N[C@@H](CCO)C(=O)O; NMeA = CN[C@@H](C)C(=O)O; Orn = NCCC[C@H](N)C(=O)O; Dab = NCC[C@H](N)C(=O)O; Dap = NC[C@H](N)C(=O)O; ξC = NC(CS)C(=O)O
# Target: T1, Human PD-L1/PD-1 (Homo sapiens, UniProt Q9NZQ7)
# T1 construct: TVMV protease cleavage site (C); made in house; host or cells: HEK293T cells
# Experiment: HTRF Human PD-L1/PD-1 binding assay (PD-1-Ig/PD-L1-His)
# Conditions: PD-L1-His 10 nM, PD-1-Ig 20 nM; class symbol; read-out: HTRF Human PD-L1/PD-1 Binding Assay IC50 Range
# Procedure, shortened: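 Compound preincubated 15 min with PD-L1-His (10 nM final), then PD-1-Ig (20 nM final) added for 15 min in dPBS with 0.1% BSA and 0.05% Tween-20. Detection by Eu-cryptate anti-Ig (1 nM) and APC anti-His (20 nM) after 30 min; 665/620 nm HTRF ratio. Proteins expressed in HEK293T.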
# T1 sequence (Q9NZQ7 with tags, fused parts or gaps): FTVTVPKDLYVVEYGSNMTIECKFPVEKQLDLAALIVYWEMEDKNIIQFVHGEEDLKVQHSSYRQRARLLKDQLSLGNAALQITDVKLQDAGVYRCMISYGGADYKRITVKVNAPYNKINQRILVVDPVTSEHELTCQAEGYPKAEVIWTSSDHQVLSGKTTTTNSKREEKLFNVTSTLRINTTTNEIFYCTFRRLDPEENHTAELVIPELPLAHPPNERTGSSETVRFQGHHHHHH
row,SMILES,IC50 [nM]
1,"CCCC[C@H]1C(=O)N2C[C@H](O)C[C@@H]2C(=O)N[C@@H](CC(=O)O)C(=O)N[C@@H](C(C)C)C(=O)N(C)[C@@H](Cc2ccccc2)C(=O)N[C@@H](CCC(=O)O)C(=O)N2C[C@H](O)C[C@@H]2C(=O)N[C@@H](Cc2c[nH]c3ccccc23)C(=O)N[C@@H](Cc2ccc(O)cc2)C(=O)N[C@@H](CCC(=O)O)C(=O)N[C@H](C(=O)NCC(N)=O)CSCC(=O)N[C@@H](Cc2cc(F)c(F)c(F)c2)C(=O)N(C)[C@@H](Cc2ccccc2)C(=O)N1C [Example 9335] ({CH2CO}-[Phe(3,4,5-F3)][NMeF][NMeNle][d(cisHyp)]DV[NMeF]E[d(cisHyp)]WYECG-NH2; thioether N-13)",10 to 99.9
2,CCCC[C@H]1C(=O)N(C)[C@@H](CCCC)C(=O)N[C@@H](C)C(=O)N[C@H](C(=O)NCC(N)=O)CSCC(=O)N[C@@H](Cc2ccc(O)cc2)C(=O)N(C)[C@@H](C)C(=O)N[C@@H](CC(N)=O)C(=O)N2CCC[C@H]2C(=O)N[C@@H](Cc2cnc[nH]2)C(=O)N[C@@H](CCC(N)=O)C(=O)N2CCNC[C@H]2C(=O)N[C@@H](Cc2c[nH]c3ccccc23)C(=O)N[C@@H](CO)C(=O)N[C@@H](Cc2c[nH]c3ccccc23)C(=O)N1C [Example 1278],10 to 99.9
3,"CCCC[C@H]1C(=O)N2CCC[C@@H]2C(=O)N[C@@H](CN)C(=O)N[C@@H](C(C)C)C(=O)N(C)[C@@H](Cc2ccccc2)C(=O)N[C@@H](CCC(=O)O)C(=O)N2CCCC[C@@H]2C(=O)N[C@@H](Cc2c[nH]c3ccccc23)C(=O)N[C@@H](Cc2ccc(O)cc2)C(=O)N[C@@H](CC(C)C)C(=O)N[C@H](C(=O)NCC(N)=O)CSCC(=O)N[C@@H](Cc2cc(F)c(F)c(F)c2)C(=O)N(C)[C@@H](Cc2ccc(F)cc2)C(=O)N1C [Example 10578] ({CH2CO}-[Phe(3,4,5-F3)][NMePhe(4-F)][NMeNle][dP][Dap]V[NMeF]E[dPip]WYLCG-NH2; thioether N-13)",1 to 9.9
4,CCCC[C@H]1C(=O)N2CCC[C@@H]2C(=O)N[C@@H](CC(=O)O)C(=O)N[C@@H](C(C)C)C(=O)N(C)[C@@H](Cc2ccc(C)cc2)C(=O)N[C@@H](CCN)C(=O)N2CCC[C@@H]2C(=O)N[C@@H](Cc2c[nH]c3ccccc23)C(=O)N[C@@H](Cc2ccc(O)cc2)C(=O)N[C@@H](CC(C)C)C(=O)N[C@H](C(=O)NCC(N)=O)CSCC(=O)N[C@@H](Cc2ccc(F)cc2)C(=O)N(C)[C@@H](Cc2ccccc2)C(=O)N1C [Example 10113] ({CH2CO}-[Phe(4-F)][NMeF][NMeNle][dP]DV[NMePhe(4-Me)][Dab][dP]WYLCG-NH2; thioether N-13),100 to 990
5,CCCC[C@H]1C(=O)N(C)[C@@H](CCCC)C(=O)N[C@@H](CCCNC(=N)N)C(=O)NC(C(=O)NCC(N)=O)CSCC(=O)N[C@@H](Cc2ccc(O)cc2)C(=O)N(C)[C@@H](C)C(=O)N[C@@H](CC(N)=O)C(=O)N2CCC[C@H]2C(=O)N[C@@H](CCO)C(=O)N[C@@H](CCO)C(=O)N2C[C@H](O)C[C@H]2C(=O)N[C@@H](Cc2c[nH]c3ccccc23)C(=O)N[C@@H](CO)C(=O)N[C@@H](Cc2c[nH]c3ccccc23)C(=O)N1C (some centres unmarked) [Example 10043] ({CH2CO}-Y[NMeA]NP[hSer][hSer][Hyp]WSW[NMeNle][NMeNle]R[ξC]G-NH2; thioether N-14),1 to 9.9

# Now from value to compound:
row,IC50 [nM],SMILES
1,1 to 9.9,CCCC[C@H]1C(=O)N(C)[C@@H](CCCC)C(=O)N[C@@H](CCC(=O)O)C(=O)NC(C(=O)NCC(N)=O)CSCC(=O)N[C@@H](Cc2ccc(O)cc2)C(=O)N(C)[C@@H](C)C(=O)N[C@@H](CC(N)=O)C(=O)N2CCC[C@H]2C(=O)N[C@@H](CC(N)=O)C(=O)N[C@@H](CC(C)C)C(=O)N2C[C@H](O)C[C@H]2C(=O)N[C@@H](Cc2c[nH]c3ccccc23)C(=O)N[C@@H](CO)C(=O)N[C@@H](Cc2c[nH]c3ccccc23)C(=O)N1C (some centres unmarked) [Example 9169] ({CH2CO}-Y[NMeA]NPNL[Hyp]WSW[NMeNle][NMeNle]E[ξC]G-NH2; thioether N-14)
2,1 to 9.9,"CCCC[C@H]1C(=O)N2C[C@@H](O)C[C@@H]2C(=O)N[C@@H](CC(=O)O)C(=O)N[C@@H](C(C)C)C(=O)N(C)[C@@H](Cc2ccccc2)C(=O)N[C@@H](CCC(=O)O)C(=O)N2CCOC[C@@H]2C(=O)N[C@@H](Cc2c[nH]c3ccccc23)C(=O)N[C@@H](Cc2ccc(O)cc2)C(=O)N[C@@H](CCCN)C(=O)N[C@H](C(=O)NCC(N)=O)CSCC(=O)N[C@@H](Cc2cc(F)c(F)c(F)c2)C(=O)N(C)[C@@H](Cc2ccccc2)C(=O)N1C [Example 9321] ({CH2CO}-[Phe(3,4,5-F3)][NMeF][NMeNle][dHyp]DV[NMeF]E[X1]WY[Orn]CG-NH2; thioether N-13)"
3,1 to 9.9,"CCCC[C@H]1C(=O)N2C[C@H](O)C[C@@H]2C(=O)N[C@@H](CC(=O)O)C(=O)N[C@@H](C(C)C)C(=O)N(C)[C@@H](Cc2ccccc2)C(=O)N[C@@H](Cc2ccc(O)cc2)C(=O)N2C[C@@H](O)C[C@@H]2C(=O)N[C@@H](Cc2c[nH]c3ccccc23)C(=O)N[C@@H](Cc2ccc(O)cc2)C(=O)N[C@@H](CC(C)C)C(=O)N[C@H](C(=O)NCC(N)=O)CSCC(=O)N[C@@H](Cc2cc(F)c(F)c(F)c2)C(=O)N(C)[C@@H](Cc2ccccc2)C(=O)N1C [Example 9371] ({CH2CO}-[Phe(3,4,5-F3)][NMeF][NMeNle][d(cisHyp)]DV[NMeF]Y[dHyp]WYLCG-NH2; thioether N-13)"
4,1 to 9.9,CCCC[C@H]1C(=O)N(C)[C@@H](CCCC)C(=O)N[C@@H](CC(C)C)C(=O)N[C@H](C(=O)NCC(N)=O)CSCC(=O)N[C@@H](Cc2ccc(OC)cc2)C(=O)N(C)[C@@H](C)C(=O)N[C@@H](CC(=O)O)C(=O)N2CCC[C@H]2C(=O)N[C@@H](Cc2cnc[nH]2)C(=O)N[C@@H](CCCCN)C(=O)N2C[C@H](O)C[C@@H]2C(=O)N[C@@H](Cc2c[nH]c3ccccc23)C(=O)N[C@@H](CCCCN)C(=O)N[C@@H](Cc2cn(CC(=O)O)c3ccccc23)C(=O)N1C [Example 7153] ({CH2CO}-Y(Me)[NMeA]DPHK[d(cisHyp)]WK[Trp(1-CH2COOH)][NMeNle][NMeNle]LCG-NH2; thioether N-14)

# Same assay, conditions: PD-L1-His 10 nM, PD-1-Ig 20 nM; read-out: HTRF Human PD-L1/PD-1 Binding Assay IC50
row,IC50 [nM],SMILES
1,63.4,CCCC[C@H]1C(=O)N(C)[C@@H](CCCC)C(=O)N[C@@H](CCCNC(=N)N)C(=O)NC(C(=O)NCC(N)=O)CSCC(=O)N[C@@H](Cc2ccc(O)cc2)C(=O)N(C)[C@@H](C)C(=O)N[C@@H](CC(N)=O)C(=O)N2CCC[C@H]2C(=O)N[C@@H](CC(N)=O)C(=O)N[C@@H](CC(N)=O)C(=O)N2CCC[C@H]2C(=O)N[C@@H](Cc2c[nH]c3ccccc23)C(=O)N[C@@H](CO)C(=O)N[C@@H](Cc2c[nH]c3ccccc23)C(=O)N1C (some centres unmarked) [Example 10013] ({CH2CO}-Y[NMeA]NPNNPWSW[NMeNle][NMeNle]R[ξC]G-NH2; thioether N-14)
2,11,"CC(C)C[C@@H]1NC(=O)[C@H](Cc2ccc(O)cc2)NC(=O)[C@H](Cc2c[nH]c3ccccc23)NC(=O)[C@H]2COCCN2C(=O)[C@H](Cc2ccc(O)cc2)NC(=O)[C@H](Cc2ccccc2)N(C)C(=O)[C@H](C(C)C)NC(=O)[C@H](CC(=O)O)NC(=O)[C@H]2C[C@@H](O)CN2C(=O)[C@H](CCC(=O)O)N(C)C(=O)[C@H](Cc2ccccc2)N(C)C(=O)[C@H](Cc2cc(F)c(F)c(F)c2)NC(=O)CSC[C@@H](C(=O)NCC(N)=O)NC1=O [Example 10176] ({CH2CO}-[Phe(3,4,5-F3)][NMeF][NMeE][d(cisHyp)]DV[NMeF]Y[X1]WYLCG-NH2; thioether N-13)"
